Measured values published in patent US20260001853A1, “ASCORBIC ACID DERIVATIVE OR SALT THEREOF, AND COSMETIC THEREOF” (SEIWA KASEI COMPANY, LIMITED, priority 2022, published 2026).

Tests used:
[1] = Stability test (residual rate by HPLC, odor, coloring); assay type: physicochemical; settings: 1% aqueous solution; for Coloring / Odor: total score of 10 panelists
Method: With a dilute potassium hydroxide aqueous solution, 1% aqueous solution of each test sample was adjusted to pH 6, placed in a 50 mL screw tube, sealed, […], and then subjected to HPLC measurement (using a liquid chromatograph manufactured by Shimadzu Corporation) to determine the residual rate from the peak area. The residual rate, odor, and coloring degree were evaluated according to the following methods and criteria.
Residual rate: • ⊚: 90% or more • ◯: 80% or more, less than 90% • Δ: 60% or more, less than 80% • x: 20% or more, less than 60% • xx: Less than 20%
Evaluation was made by 10 panelists according to the following criteria. • 3: Almost odorless • 2: There is a slight strange odor. • 1: A strong odor is detected.
Based on the evaluation results, the following classification was made: • ⊚: Total score of 10 panelists is 25 or more • ◯: Total score of 10 panelists is 20-24 • Δ: Total score of 10 panelists is 16-19 • x: The total score of 10 panelists is 15 or less
Evaluation was made by 10 panelists according to the following criteria. • 3: Almost no change compared to immediately after preparation. • 2: Color changes compared to immediately after preparation. • 1: Strongly colored compared to immediately after preparation.
Based on the evaluation results, the following classification was made: • ◯: Total score of 10 panelists is 25 or more • Δ: Total score of 10 panelists is 16-24 • x: The total score of 10 panelists is 15 or less

[2] = system: Normal human dermal fibroblasts; experiment: Collagen production promoting effect (ELISA of supernatant); assay type: cell-based; settings: amount of collagen produced, % with control group taken as 100%; sample at 10 mmol/L or less, 48 hours, N=3
Method: Normal human dermal fibroblasts were prepared in D-MEM containing 5% (v/v) fetal bovine serum to a cell density of […] cells/well, and pre incubated on a 96-well plate for 24 hours. After removing the medium, samples prepared to a predetermined concentration in D-MEM containing 5% (v/v) fetal bovine serum were added to each well and cultured for 48 hours. After completion of the culture, the amount of free collagen in the supernatant was quantified by ELISA method. The measurement was performed with N=3.
(§1) The amount of collagen produced when the samples were measured at a concentration of 10 mmol/L or less was compared with that of the control group, and the results (% values when the control group is taken as 100%) are shown in Tables 15 to 17 based on the following criteria. • <100%: ± • 100-120%: + • 120%: ++

[3] = system: Normal human dermal fibroblasts (NHDF); experiment: Hyaluronic acid production promoting effect (ELISA of supernatant); assay type: cell-based; settings: amount of hyaluronic acid produced, % with control group taken as 100%; sample at 10 mmol/L or less, 48 hours, N=3
Method: Normal human dermal fibroblasts (NHDF) were prepared in D-MEM containing 5% (v/v) fetal bovine serum to a cell density of 2.5× 10^4 cells/well, and then pre-incubated on a 96-well plate for 24 hours. After removing the medium, samples prepared in serum-free D-MEM were added to each well and cultured for 48 hours. After the culture was completed, the amount of hyaluronic acid in the supernatant was quantified by ELISA method. The measurement was performed with N=3.
as §1, with “of hyaluronic acid” for “of collagen”, “Tables 18” for “Tables 15”, “to 20” for “to 17”, “• 120-150%:” for “• 120%:”, “++ • 150%: +++” for “++”

B16 melanoma 4A5 cells = experiment: Melanin production inhibitory effect (theophylline-induced melanin production); assay type: cell-based, mouse; settings: melanin production inhibition rate, sample at a concentration of 10 mM or less, 3 days culture, theophylline 1 mmol/L, N=4
Method: As a test of the whitening effect, the effect on theophylline-induced melanin production in B16 melanoma 4A5 cells was evaluated for the ascorbic acid derivatives of the present invention according to the following procedure. A similar evaluation was also performed for a known ascorbic acid derivative for comparison. The results are shown in Tables 9 to 11. • (1) B16 mouse melanoma 4A5 cells were seeded in a 48-well plate at a cell density of 8.0×10^3 cells/well. • (2) After culturing for 24 hours in Dulbecco's modified Eagle's medium (manufactured by SIGMA, hereinafter abbreviated as “D-MEM”) containing 10% fetal bovine serum, the medium was replaced with D-MEM containing 10% fetal bovine serum containing theophylline (final concentration 1 mmol/L) and a specified concentration of a sample. • (3) After culturing for 3 days in the presence of the sample, the medium was removed using an aspirator, distilled water was added, and the cells were disrupted by ultrasonication. • (4) The amount of protein was then quantified using a BCA protein assay kit (manufactured by PIERCE), and the amount of melanin produced was measured by an alkali solubilization method. Sodium hydroxide was added to the cell lysate to a final concentration of 1 mol/L, and the solution was dissolved by heating (60° C., 30 minutes), thereafter the absorbance at 405 nm was measured using a microplate reader. The amount of melanin was calculated from a calibration curve prepared using synthetic melanin (SIGMA) as a standard. The amount of melanin per unit protein was calculated by dividing the amount of melanin by the amount of protein. • (5) The melanin production inhibition rate was calculated using the following formula.
[In the formula, A represents the amount of melanin per unit protein (g/g) when the sample was added, B represents the amount of melanin per unit protein (g/g) in the normal group, and C represents the amount of melanin per unit protein (g/g) in the control group.]
The melanin production inhibition rate when the sample was measured at a concentration of 10 mM or less is expressed as follows. The measurement was performed with N=4. • <20%: ± • 20-40%: + • 40-60%: ++ • 60-100%: +++

[4] = pH 6, stored at 50° C., four weeks later
[5] = pH 6, stored at 50° C., two weeks later

| Structure (SMILES) | Residual rate ([1]; pH 6, 50° C., initial) | Coloring ([1]; pH 6, 50° C., initial) | Odor ([1]; pH 6, 50° C., initial) | Residual rate [1, 4] | Coloring [1, 4] | Odor [1, 4] | Residual rate [1, 5] | Coloring [1, 5] | Odor [1, 5] | Collagen production promoting effect [2] | Hyaluronic acid production promoting effect [3] | Melanin production inhibition effect (B16 melanoma 4A5 cells) |
| --- | --- | --- | --- | --- | --- | --- | --- | --- | --- | --- | --- | --- |
| CCCCCCCCCCCCOCC(O)COC1=C(OCC(C)(C)O)C(C(O)CO)OC1=O (stereo not drawn) [Synthesis Example 31, 2-O-(2-hydroxy-3-O-dodecyl)-3-O-(2-hydroxyisobutyl) ascorbic acid] | ⊚ (⊚: 90% or more) | ◯ (◯: Total score of 10 panelists is 25 or more) | ⊚ (⊚: Total score of 10 panelists is 25 or more) | ⊚ (⊚: 90% or more) | ◯ (◯: Total score of 10 panelists is 25 or more) | ◯ (◯: Total score of 10 panelists is 20-24) | ⊚ (⊚: 90% or more) | ◯ (◯: Total score of 10 panelists is 25 or more) | ⊚ (⊚: Total score of 10 panelists is 25 or more) | ++ (120%: ++) | ++ (120-150%: ++) | + (20-40%: +) |
| CCCCCCCCC(O)COC1=C(OCC(C)(C)O)C(=O)O[C@@H]1[C@@H](O)CO (stereo partly drawn) [Synthesis Example 36, 2-O-(2-hydroxyisobutyl)-3-O-(2-hydroxydecyl) ascorbic acid] | ⊚ (⊚: 90% or more) | ⊚ | ◯ (◯: Total score of 10 panelists is 20-24) | ⊚ (⊚: 90% or more) | ◯ (◯: Total score of 10 panelists is 25 or more) | ◯ (◯: Total score of 10 panelists is 20-24) | ⊚ (⊚: 90% or more) | ◯ (◯: Total score of 10 panelists is 25 or more) | ◯ (◯: Total score of 10 panelists is 20-24) | + (100-120%: +) | ++ (120-150%: ++) | ++ (40-60%: ++) |
| CCCCCCCCCCCCCCC(O)COC1=C(OCC(C)(C)O)C(=O)O[C@@H]1[C@@H](O)CO (stereo partly drawn) [Synthesis Example 37, 2-O-(2-hydroxyisobutyl)-3-O-(2-hydroxyhexadecyl) ascorbic acid] | ⊚ (⊚: 90% or more) | ◯ (◯: Total score of 10 panelists is 25 or more) | ⊚ (⊚: Total score of 10 panelists is 25 or more) | ⊚ (⊚: 90% or more) | ◯ (◯: Total score of 10 panelists is 25 or more) | ◯ (◯: Total score of 10 panelists is 20-24) | ⊚ (⊚: 90% or more) | ◯ (◯: Total score of 10 panelists is 25 or more) | ◯ (◯: Total score of 10 panelists is 20-24) | + (100-120%: +) | ++ (120-150%: ++) | + (20-40%: +) |
| CC(C)(O)COC1=C(OCC(O)c2ccccc2)C(C(O)CO)OC1=O (stereo not drawn) [Synthesis Example 38, 2-O-(2-hydroxyisobutyl)-3-O-(2-hydroxyethylbenzene) ascorbic acid] | ⊚ (⊚: 90% or more) | ⊚ | ◯ (◯: Total score of 10 panelists is 20-24) | ⊚ (⊚: 90% or more) | ◯ (◯: Total score of 10 panelists is 25 or more) | ◯ (◯: Total score of 10 panelists is 20-24) | ⊚ (⊚: 90% or more) | ◯ (◯: Total score of 10 panelists is 25 or more) | ◯ (◯: Total score of 10 panelists is 20-24) | ++ (120%: ++) | ++ (120-150%: ++) | ++ (40-60%: ++) |
| CC(O)COC1=C(OCC(C)(C)O)[C@@H]([C@@H](O)CO)OC1=O (stereo partly drawn) [Synthesis Example 39, 3-O-(2-hydroxyisobutyl)-2-O-(2-hydroxypropyl) ascorbic acid] | ⊚ (⊚: 90% or more) | ⊚ | ⊚ (⊚: Total score of 10 panelists is 25 or more) | ⊚ (⊚: 90% or more) | ◯ (◯: Total score of 10 panelists is 25 or more) | ◯ (◯: Total score of 10 panelists is 20-24) | ⊚ (⊚: 90% or more) | ◯ (◯: Total score of 10 panelists is 25 or more) | ◯ (◯: Total score of 10 panelists is 20-24) | + (100-120%: +) | +++ (150%: +++) | +++ (60-100%: +++) |
| CCC(O)COC1=C(OCC(C)(C)O)[C@@H]([C@@H](O)CO)OC1=O (stereo partly drawn) [Synthesis Example 40, 3-O-(2-hydroxyisobutyl)-2-O-(2-hydroxybutyl) ascorbic acid] | ⊚ (⊚: 90% or more) | ◯ (◯: Total score of 10 panelists is 25 or more) | ◯ (◯: Total score of 10 panelists is 20-24) | ⊚ (⊚: 90% or more) | ◯ (◯: Total score of 10 panelists is 25 or more) | ◯ (◯: Total score of 10 panelists is 20-24) | ⊚ (⊚: 90% or more) | ◯ (◯: Total score of 10 panelists is 25 or more) | ◯ (◯: Total score of 10 panelists is 20-24) | ++ (120%: ++) | ++ (120-150%: ++) | ++ (40-60%: ++) |
| CCCCCCCCC(O)COC1=C(OCC(C)(C)O)[C@@H]([C@@H](O)CO)OC1=O (stereo partly drawn) [Synthesis Example 41, 3-O-(2-hydroxyisobutyl)-2-O-(2-hydroxydecyl) ascorbic acid] | ⊚ (⊚: 90% or more) | ◯ (◯: Total score of 10 panelists is 25 or more) | ◯ (◯: Total score of 10 panelists is 20-24) | ⊚ (⊚: 90% or more) | ◯ (◯: Total score of 10 panelists is 25 or more) | ◯ (◯: Total score of 10 panelists is 20-24) | ⊚ (⊚: 90% or more) | ◯ (◯: Total score of 10 panelists is 25 or more) | ◯ (◯: Total score of 10 panelists is 20-24) | + (100-120%: +) | ++ (120-150%: ++) | ++ (40-60%: ++) |
